The values below come from publication PMC8205225, “Structural Basis of Metallo-β-lactamase Inhibition by N-Sulfamoylpyrrole-2-carboxylates” (ACS Infectious Diseases, 2021).

Assay [1] addresses T1, VIM-1 (Pseudomonas aeruginosa, UniProt A0A0F7KYQ8).
T1 construct: made in house
Put plainly: fluorogenic cephalosporin FC5 MBL inhibition assay, VIM-1. Type of assay: biochemical. Particulars: FC5 5 μM, enzyme 100 pM, quadruplicate; for IC50: read-out: pIC50 VIM-1 (converted). As to the method: (§1) The NSPCs were screened against four of the currently most clinically relevant B1 MBLs, i.e. VIM-1, VIM-2, NDM-1, and IMP-1 (Table 1), using an assay employing the “fluorogenic” cephalosporin FC5.[40]
(§2) The inhibitory activity of NSPCs 6, 8-14 against representative B1 subfamily MBLs [obtained according to previously reported production and purification procedures: VIM-1,5 VIM-2, NDM-1 and IMP-16] was determined using a fluorogenic assay monitoring the enzymatic breakdown of the cephalosporin probe FC5.6 The FC5/meropenem assays were conducted at room temperature in clear-bottomed Greiner 384 black well microplates (FC5) or Greiner 96 well UV star microplates (meropenem), using a ClarioStar or PHERAstar FS microplate reader (BMG LabTech). Representative β-lactamases were tested at the following concentrations:
(§3) VIM-1, 100 pM; NDM-1, 20 pM; IMP-1, 20 pM; and VIM-2, 500 pM. The concentration of FC5 employed was 5 μM for all enzymes. IMP-1, VIM-1, VIM-2 and NDM-1 inhibition assays were screened in “MBL buffer” (50 mM HEPES, pH 7.2, 1 μM ZnSO4, 1 μg mL−1 BSA, 0.01% v/v Triton X-100). The initial rates of reaction (measured after 10 min pre-incubation of the NSPC with the enzyme) were assessed by monitoring the fluorescence intensity at λex = 380 nm and λem = 460 nm. Following the determination of initial rates of reaction, the data were fitted using a four-parameter function: log (inhibitor) vs. response, variable slope in GraphPad Prism 6 to obtain IC50 values.6, 7

In assay [2] the target is T2, NDM-1 (Klebsiella pneumoniae, UniProt C7C422).
T2 construct: made in house
T2 sequence (C7C422 29-270, looked up, species assumed): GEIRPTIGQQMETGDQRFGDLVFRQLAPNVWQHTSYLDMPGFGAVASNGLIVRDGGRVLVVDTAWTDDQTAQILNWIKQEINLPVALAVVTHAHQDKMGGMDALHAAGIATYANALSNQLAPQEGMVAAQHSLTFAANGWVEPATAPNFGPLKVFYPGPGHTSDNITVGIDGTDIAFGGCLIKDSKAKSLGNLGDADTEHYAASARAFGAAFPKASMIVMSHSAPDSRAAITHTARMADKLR
Put plainly: fluorogenic cephalosporin FC5 MBL inhibition assay, NDM-1. It counts as biochemical. To be noted: for IC50: FC5 5 μM, enzyme 20 pM, quadruplicate, read-out: pIC50 NDM-1 (converted); for activity (IC50) for inhibition of NDM-1, in words: FC5 assay. As to the method: as §1, §2, §3

Assay [3] deals with T3, VIM-2 (Escherichia coli, UniProt Q5U7L7).
T3 construct: made in house
Description: fluorogenic cephalosporin FC5 MBL inhibition assay, VIM-2. Type of assay: biochemical. Particulars: FC5 5 μM, enzyme 500 pM, quadruplicate; read-out: pIC50 VIM-2 (converted). The method, then:
as §1, §2, §3

For assay [4], the target named is T4, IMP-1 (Serratia marcescens, UniProt P52699).
T4 construct: made in house
T4 sequence (P52699 19-246, looked up, species assumed): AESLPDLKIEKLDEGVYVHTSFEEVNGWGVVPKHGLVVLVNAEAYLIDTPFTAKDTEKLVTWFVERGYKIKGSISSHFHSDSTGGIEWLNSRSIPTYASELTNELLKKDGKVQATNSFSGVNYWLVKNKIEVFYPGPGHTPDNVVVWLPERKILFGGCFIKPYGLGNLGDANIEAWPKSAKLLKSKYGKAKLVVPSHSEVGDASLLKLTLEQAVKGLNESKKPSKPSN
Description: fluorogenic cephalosporin FC5 MBL inhibition assay, IMP-1. To be noted: FC5 5 μM, enzyme 20 pM, quadruplicate; read-out: pIC50 IMP-1 (converted). It counts as biochemical. As to the method: as §1, §2, §3

For assay [5], the target named is T2, NDM-1. Set-up: method as in PMID 32184250. To be noted: determined by measuring hydrolysis of imipenem; cited from earlier work.
In assay [6] the target is T3, VIM-2. Set-up: method as in PMID 32184250. Particulars: determined by measuring hydrolysis of imipenem; cited from earlier work.
Assay [7] addresses T4, IMP-1. Also on record: method as in PMID 32184250. Particulars: determined by measuring hydrolysis of imipenem; cited from earlier work.
Assay [8] has as its target T1, VIM-1. To be noted: cited from earlier work.
Assay [9] deals with T3, VIM-2. Particulars: cited from earlier work.
In assay [10] the target is T4, IMP-1. Particulars: cited from earlier work.
The subject of the next assay is E. coli IR57 blaNDM-1. Set-up: method as in PMID 31454231. To be noted: strain IR57, VNRX at 10 μg mL^–1 (printed in the [I] 8 row); cited from earlier work.
In assay [11] the test system is K. pneumoniae B68-1 blaNDM-1. Also on record: method as in PMID 31454231. To be noted: strain B68-1, VNRX at 10 μg mL^–1 (printed in the [I] 8 row); cited from earlier work.
The next assay relates to E. coli S117 blaNDM-1. Also on record: method as in PMID 31454231. To be noted: strain S117, VNRX at 10 μg mL^–1 (printed in the [I] 8 row); cited from earlier work.
Assay [12] deals with K. pneumoniae IR43 blaNDM-1. Set-up: method as in PMID 31454231. To be noted: strain IR43, VNRX at 10 μg mL^–1 (printed in the [I] 8 row); cited from earlier work.
Assay [13] addresses T2, NDM-1. To be noted: determined using 100 μM nitrocefin; cited from earlier work.
Assay [14] addresses T3, VIM-2. Particulars: determined using 100 μM nitrocefin; cited from earlier work.
For assay [15], the target named is T4, IMP-1. To be noted: determined using 100 μM nitrocefin; cited from earlier work.

Like-named read-outs stand apart in the source and are kept apart here.

As to `Nc1nc2ccc(-c3ccn(S(N)(=O)=O)c3C(=O)O)cn2n1` [compound 14, 3-(2-Amino-[1,2,4]triazolo[1,5-a]pyridin-6-yl)-1-sulfamoyl-1H-pyrrole-2-carboxylic acid], the IC50 at VIM-1 [1] was 0.0398 µM; on NDM-1 [2] it was 0.0126 µM; on VIM-2 [3] it was 0.00631 µM; at IMP-1 [4] it was 0.00501 µM.
For `NS(=O)(=O)n1ccc(-c2ccc(F)cc2)c1C(=O)O` [6a, 3-(4-Fluorophenyl)-1-sulfamoyl-1H-pyrrole-2-carboxylic acid], the IC50 is 0.126 µM at VIM-1 [1], 0.00794 µM at NDM-1 [2], 0.02 µM on VIM-2 [3] and 0.000631 µM on IMP-1 [4]. Moreover, at NDM-1 [2], the “activity (IC50) for inhibition of NDM-1, in words” value (from here on “activity (IC50) for inhibition”) is “nanomolar potency”.
For `CCc1c(C(=O)O)c(S(N)(=O)=O)c(CC)n1C` [SPC], the “pIC50 NDM-1” value on NDM-1 [5] was 6.0[21]. Moreover, at VIM-2 [6], the “pIC50 VIM-2” value is 7.7[21]. Also, the “pIC50 IMP-1” value at IMP-1 [7] was 6.6[21].
Take `N=C1NCC(c2ccn(S(N)(=O)=O)c2C(=O)O)CN1` (centres unmarked) [compound 12]: the IC50 was 0.00316 µM at VIM-1 [1], 0.316 µM at NDM-1 [2], 0.0126 µM at VIM-2 [3] and 0.0501 µM at IMP-1 [4].
The matching figures for `Nc1ncc(-c2ccn(S(N)(=O)=O)c2C(=O)O)cn1` [compound 11]: 0.0398 µM, 0.0126 µM, 0.0501 µM and 0.00631 µM.
As to `NCCN[C@H]1CC[C@H](CC(=O)N[C@H]2Cc3cccc(C(=O)O)c3OB2O)CC1` [taniborbactam], the “pIC50 VIM-1” value at VIM-1 [8] was 8.1[41]. Further, the “pIC50 VIM-2” value at VIM-2 [9] was 8.3[41]. On IMP-1 [10], the “pIC50 IMP-1” value is 5.6[41]. Further, the “MIC of MEM in combination with VNRX” value is listed as 0.5 μg mL^–1 in the assay on E. coli IR57 blaNDM-1, 0.5 μg mL^–1 in assay [11], 1 μg mL^–1 in the assay on E. coli S117 blaNDM-1 and 0.25 μg mL^–1 in assay [12].
Consider `NS(=O)(=O)n1ccc(-c2ccc(C3CCNCC3)cc2)c1C(=O)O` [AMRC276], for which, at NDM-1 [13], the “pIC50 NDM-1” value was 6.8[22]. Besides, on VIM-2 [14], the “pIC50 VIM-2” value is 4.2[22]. The “pIC50 IMP-1” value at IMP-1 [15] was 7.4[22].
`NC(=O)c1ccc(-c2ccn(S(N)(=O)=O)c2C(=O)O)cc1` [compound 8]: the IC50 is 0.0794 µM on VIM-1 [1], 0.0126 µM on NDM-1 [2], 0.158 µM on VIM-2 [3] and 0.00251 µM on IMP-1 [4].
For `NS(=O)(=O)n1ccc(-c2cn[nH]c2)c1C(=O)O` [compound 10], the IC50 on VIM-1 [1] was 0.0794 µM; on NDM-1 [2] it was 0.00794 µM; at VIM-2 [3], 0.0158 µM; at IMP-1 [4], 0.00126 µM. In addition, on NDM-1 [2], the “activity (IC50) for inhibition” value was “nanomolar potency”.
As to `Nc1ccc(-c2ccn(S(N)(=O)=O)c2C(=O)[O-])cn1.[Na+]` [compound 9], the IC50 on VIM-1 [1] is 0.316 µM; on NDM-1 [2], 0.0126 µM; on VIM-2 [3], 0.2 µM; on IMP-1 [4] it was 0.001 µM. Moreover, at NDM-1 [13], the “pIC50 NDM-1” value is 6.1[22]. The “pIC50 VIM-2” value on VIM-2 [14] was 4.5[22]. Also, the “pIC50 IMP-1” value on IMP-1 [15] was 6.4[22].
Consider `CS(=O)(=O)c1ccc(-c2ccn(S(N)(=O)=O)c2C(=O)O)cc1` [AMRC439], for which the “pIC50 NDM-1” value on NDM-1 [13] was 6.4[22]. Also, the “pIC50 VIM-2” value on VIM-2 [14] is 4.3[22]. Moreover, at IMP-1 [15], the “pIC50 IMP-1” value is 6.3[22].
`NS(=O)(=O)n1ccc(-c2ccc(F)cc2)c1C(=O)[O-].[Na+]` [6b]: the “pIC50 VIM-1” value at VIM-1 [1] is given as 6.9. Also, the IC50 on NDM-1 [2] is 0.00631 µM; on VIM-2 [3] it was 0.0316 µM; at IMP-1 [4] it was 0.00126 µM. The “activity (IC50) for inhibition” value at NDM-1 [2] was “nanomolar potency”.
On to `NS(=O)(=O)n1ccc(-c2ccc(=O)[nH]c2)c1C(=O)O` [AMRC364], for which the “pIC50 NDM-1” value on NDM-1 [13] was 5.6[22]. Also, at VIM-2 [14], the “pIC50 VIM-2” value is 4.4[22]. Further, the “pIC50 IMP-1” value on IMP-1 [15] is 5.7[22].
In the case of `NS(=O)(=O)n1ccc(-c2ccc(N3CCOCC3)cc2)c1C(=O)O` [compound 13], the IC50 at VIM-1 [1] was 0.251 µM; at NDM-1 [2] it was 0.00158 µM; at VIM-2 [3], 0.158 µM; on IMP-1 [4], < 0.000631 µM. The “activity (IC50) for inhibition” value on NDM-1 [2] is “nanomolar potency”.
